{"source": "patent US11559527B2", "about": "(priority 2017, dated 2023)", "key": {"MCF7 cells [1]": {"tested_on": "MCF7 cells", "assay": "Mitochondrial staining with Mitotracker Deep Red (microscopy)", "assay_type": "cell-based, Human", "conditions": "10 μM, 2- and 5-day treatment", "source_text": "In order to assess whether the inhibition of DRP1 was actually being translated into a reduction in mitochondrial fission, the inventors stained the mitochondria of MCF7 cells with Mitotracker Deep Red, which is a marker of mitochondrial mass. […] The original images are black background with shades of red over the cells, whereas the images in FIG. 3 have been color-inverted and generated in grey scale. Mitochondrial mass was also quantified by flow cytometry. FIGS. 4A-4C show results of mitochondrial mass quantification. In FIG. 4A, Mitotracker Deep Red mean intensity relative to vehicle intensity is shown for 2-day and 5-day treatments.\nMITOCHONDRIAL STAINING: One hundred thousand MCF7 cells were seeded onto coverslips in 12-well plates. When cells were attached, mDIVI-1 and vehicle treatments were performed in triplicate. After 2 days and 5 days, mitochondria were labeled by incubating cells for 15 min at 37° C. with 25 nM of MitoTracker DeepRed (M22426, Invitrogen) diluted in PBS (D8662, Sigma). Then, cells were washed with PBS, fixed in 2% paraformaldehyde (28908, Thermo Scientific) in PBS for 30 minutes at room temperature and mounted with ProLong® Gold Antifade Mountant reagent with DAPI (P36935, Invitrogen, Inc.). […]"}, "MCF7 cells [2]": {"tested_on": "MCF7 cells", "assay": "Label-free quantitative proteomics", "assay_type": "cell-based, Human", "conditions": "MCF7, 10 μM", "source_text": "Following protein digestion with trypsin, peptide fractions were processed on an LTQ-Orbitrap XL mass spectrometer. Those peptides identified were further analyzed to find proteomic changes between mDIVI-1-treated and vehicle-treated MCF7 cells, as described before. […] First, the inventors searched the proteomics datasets for changes in proteins involved in metabolism. […] That may possibly translate into a loss of antioxidant power, as the pentose phosphate pathway is a major source of NADPH.\nLABEL-FREE SEMI-QUANTITATIVE PROTEOMICS: Chemicals and sample preparation. Formic acid, trifluoroacetic acid, ammonium formate (10 M), ammonium bicarbonate TCEP (Tris (2-carboxyethyl)phosphine hydrochloride), MMTS (Methyl methanethiosulfonate) and trypsin were all obtained from Sigma. HPLC gradient grade acetonitrile was obtained from Fisher Scientific. Briefly, 2×10^6 MCF7 cells were seeded in 15 cm plates until cells were attached. […] As control, vehicle-treated cells were processed in parallel. After 48 hours of treatment, cells were lysed in RIPA buffer (R0278, Sigma) and kept at 4° C. for 20 minutes with rotation. Lysates were cleared by centrifugation for 10 minutes at 10,000×g and supernatants were collected and kept frozen at −80° C.\nPROTEIN DIGESTION: Lysate samples were thawed to room temperature and their concentrations equalized to 1 μg/μL (50 μL volume) with RIPA buffer, and further processed for trypsin digestion by sequential reduction of disulphide bonds with TCEP and alkylation with MMTS. Briefly, 1 μL benzonase (Novagen) was added to the 50 μL aliquot and placed on ice for 15 minutes. The sample was then taken to dryness using a SpeedVac, and resuspended in 22.5 μL trypsin reaction buffer (40 mM ammonium bicarbonate and 9% acetonitrile). One μL of 50 mM TCEP solution was added to each sample, mixed briefly and placed on a heater block at 60° C. for 60 minutes. After cooling to room temperature, 0.5 μL of 200 mM MMTS solution was added to each sample and allowed to react for 15 minutes. Trypsin was added in two waves to ensure efficient digestion of the sample. Firstly, 20 μg of sequencing grade trypsin was resuspended in 1800 μL of trypsin reaction buffer; 225 μL of this solution were added to each sample for digestion, and the reactions were left at 37° C. overnight with shaking (600 rpm). The following morning, a further aliquot of trypsin was added. Two ml of trypsin reaction buffer was added to 20 μL of sequencing grade trypsin; 250 μL of this solution were added to each of the digest samples from overnight, and the reactions were left at 37° C. for 4 hours with shaking (600 rpm). Thirty-five μL 10% formic acid were added to the 500 μL digest sample (0.7% final concentration of formic acid) to stop the digestion. The digested solution was diluted in 7.5 mL of acetonitrile containing 0.3% formic acid.\nHILIC solid phase extraction (SPE) of peptides. PolyhydroxyethylA SPE 12 μm, 300 A, 300 mg cartridges (obtained from PolyLC) were used for the HILIC procedure. Prior to use, cartridges required an overnight soak in 50 mM formic acid followed by rinsing with water the following day. Cartridges were preconditioned with 2 mL of Buffer A (90% acetonitrile, 5 mM ammonium formate, pH 2.7) followed by 2 mL of Buffer B (5 mM ammonium formate, pH 2.7) and finally re-equilibrated with 10 mL Buffer A. The diluted samples were loaded onto the cartridges and washed with a further 10 mL Buffer A. Finally, peptides were eluted in 1 mL Buffer C (9 parts Buffer B plus 1 part Buffer A) and the samples dried on a Speedvac to remove organic solvent prior to LC-MS/MS analysis.\nLC-MS/MS analysis. Lyophilised digests were resuspended in 50 μL of 0.1% TFA to give an approximate concentration of 1 μg/μL. One μL injection volumes were used throughout resulting in an on-column peptide loading of approximately 1 μg per injection. Analysis was performed in quintuplicate for each sample. […]"}}}
{"smiles": "COc1cc(-n2c(S)nc3ccccc3c2=O)c(Cl)cc1Cl", "note": "[mDIVI-1, 3-(2,4-Dichloro-5-methoxyphenyl)-2-sulfanyl-4(3H)-quinazolinone]", "values": [{"measurement": "mitochondrial morphology", "setting": "MCF7 cells [1]", "value": "more interconnected mitochondria"}, {"measurement": "Change in expression: Hexokinase 1 (HK1)", "setting": "MCF7 cells [2]; Glycolysis, 48 hours", "value": "↓Infinite"}, {"measurement": "BMP7 expression change (proteomics)", "setting": "MCF7 cells [2]; 48 hours vs vehicle", "value": "−47.17"}, {"measurement": "CELSR2 expression change (proteomics)", "setting": "MCF7 cells [2]; 48 hours vs vehicle", "value": "−1.6"}, {"measurement": "EPCAM expression change (proteomics)", "setting": "MCF7 cells [2]; 48 hours vs vehicle", "value": "−1.58"}, {"measurement": "EphA2 expression change (proteomics)", "setting": "MCF7 cells [2]; 48 hours vs vehicle", "value": "−1.74"}, {"measurement": "F11 receptor expression change (proteomics)", "setting": "MCF7 cells [2]; 48 hours vs vehicle", "value": "−1.70"}, {"measurement": "LAMP1 expression change, upregulated (proteomics)", "setting": "MCF7 cells [2]; 48 hours vs vehicle", "value": 2.83}, {"measurement": "STAT3 expression change (proteomics)", "setting": "MCF7 cells [2]; 48 hours vs vehicle", "value": "−1.83"}, {"measurement": "ZO-1 expression change (proteomics)", "setting": "MCF7 cells [2]; 48 hours vs vehicle", "value": "−1.62"}, {"measurement": "collagen type IV upregulation (proteomics)", "setting": "MCF7 cells [2]; 48 hours vs vehicle", "value": 1.9, "unit": "fold"}, {"measurement": "desmoplakin expression change (proteomics)", "setting": "MCF7 cells [2]; 48 hours vs vehicle", "value": "−4.58"}, {"measurement": "junction plakoglobin expression change (proteomics)", "setting": "MCF7 cells [2]; 48 hours vs vehicle", "value": "−1.65"}, {"measurement": "keratin 8 expression change (proteomics)", "setting": "MCF7 cells [2]; 48 hours vs vehicle", "value": "−5.24"}, {"measurement": "keratin 18 expression change (proteomics)", "setting": "MCF7 cells [2]; 48 hours vs vehicle", "value": "−12.21"}]}
